Measurements reported in ChEMBL document CHEMBL5212743, “Selectivity Literature for EUbOPEN Chemogenomics Library wave 3” (2023).

Tests used:
[1] = molecular target: Glutamate receptor ionotropic, NMDA 1 (Homo sapiens, UniProt Q05586); assay: Selectivity interaction (PRESTO-Tango GPCR-ome screening) EUB0000539a GRIN1
[2] = molecular target: Beta-adrenergic receptor kinase 1 (Homo sapiens) (UniProt P25098); assay: Selectivity interaction (KinomeScan (DiscoverX)) EUB0000303b ADRBK1; conditions: at 1 µM
Sequence of Beta-adrenergic receptor kinase 1 (Homo sapiens) (P25098 whole entry): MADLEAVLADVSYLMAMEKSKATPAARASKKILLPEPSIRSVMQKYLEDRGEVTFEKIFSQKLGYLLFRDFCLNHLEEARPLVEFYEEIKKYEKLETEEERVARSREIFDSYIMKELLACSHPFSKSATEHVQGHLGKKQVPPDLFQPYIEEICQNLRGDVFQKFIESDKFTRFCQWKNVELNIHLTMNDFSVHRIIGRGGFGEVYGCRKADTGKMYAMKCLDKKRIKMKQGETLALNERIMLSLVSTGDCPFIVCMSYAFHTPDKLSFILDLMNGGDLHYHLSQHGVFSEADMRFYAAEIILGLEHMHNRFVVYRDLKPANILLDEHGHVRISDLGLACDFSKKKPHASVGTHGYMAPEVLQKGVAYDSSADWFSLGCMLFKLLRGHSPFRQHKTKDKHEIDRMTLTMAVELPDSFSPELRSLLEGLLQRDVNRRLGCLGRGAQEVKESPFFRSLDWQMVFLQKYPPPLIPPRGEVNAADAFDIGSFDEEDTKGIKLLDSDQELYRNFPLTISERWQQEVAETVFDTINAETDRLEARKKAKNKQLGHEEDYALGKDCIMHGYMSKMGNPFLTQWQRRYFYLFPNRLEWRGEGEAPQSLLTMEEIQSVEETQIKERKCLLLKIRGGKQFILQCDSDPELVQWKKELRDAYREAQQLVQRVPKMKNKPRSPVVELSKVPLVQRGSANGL

[3] = molecular target: Voltage-gated inwardly rectifying potassium channel KCNH2 (Homo sapiens, UniProt Q12809); assay: Selectivity interaction (Ricerca panel (GPCRs, ion channels, transporters, enzymes, and proteases)) EUB0000303b KCNH2; conditions: at 10 µM
Sequence of Voltage-gated inwardly rectifying potassium channel KCNH2 (Q12809 whole entry): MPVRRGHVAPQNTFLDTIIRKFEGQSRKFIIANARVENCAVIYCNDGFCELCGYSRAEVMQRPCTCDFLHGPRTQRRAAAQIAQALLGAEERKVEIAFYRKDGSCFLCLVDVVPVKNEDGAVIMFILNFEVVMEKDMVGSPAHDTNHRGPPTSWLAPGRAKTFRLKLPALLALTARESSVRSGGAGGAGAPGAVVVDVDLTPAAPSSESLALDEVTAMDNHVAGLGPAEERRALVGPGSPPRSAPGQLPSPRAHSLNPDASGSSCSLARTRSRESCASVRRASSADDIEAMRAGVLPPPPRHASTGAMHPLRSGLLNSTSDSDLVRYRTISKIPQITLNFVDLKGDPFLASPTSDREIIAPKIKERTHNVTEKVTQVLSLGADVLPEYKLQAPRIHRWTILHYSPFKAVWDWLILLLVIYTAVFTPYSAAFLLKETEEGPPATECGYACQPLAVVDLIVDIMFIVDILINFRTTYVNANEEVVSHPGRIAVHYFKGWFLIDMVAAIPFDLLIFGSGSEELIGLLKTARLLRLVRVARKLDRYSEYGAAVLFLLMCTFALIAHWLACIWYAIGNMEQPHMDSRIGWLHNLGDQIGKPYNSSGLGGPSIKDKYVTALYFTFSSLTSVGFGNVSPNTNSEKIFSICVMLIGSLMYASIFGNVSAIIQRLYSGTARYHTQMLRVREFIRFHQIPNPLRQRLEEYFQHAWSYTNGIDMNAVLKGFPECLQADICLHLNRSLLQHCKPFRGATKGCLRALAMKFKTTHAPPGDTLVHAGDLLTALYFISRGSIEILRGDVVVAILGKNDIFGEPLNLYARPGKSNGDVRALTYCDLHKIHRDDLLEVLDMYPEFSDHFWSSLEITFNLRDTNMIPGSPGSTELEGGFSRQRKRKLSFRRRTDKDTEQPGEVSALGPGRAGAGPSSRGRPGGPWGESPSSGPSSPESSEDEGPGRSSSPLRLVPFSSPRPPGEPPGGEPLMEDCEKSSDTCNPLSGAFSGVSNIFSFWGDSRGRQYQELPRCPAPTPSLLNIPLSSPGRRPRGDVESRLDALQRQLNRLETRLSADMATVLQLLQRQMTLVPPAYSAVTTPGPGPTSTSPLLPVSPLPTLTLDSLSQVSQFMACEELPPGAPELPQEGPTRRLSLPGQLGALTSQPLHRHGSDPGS

[4] = molecular target: T1, Serine/threonine-protein kinase Sgk1 (Homo sapiens) (UniProt O00141); assay: Selectivity interaction (KinomeScan (DiscoverX)) EUB0000303b SGK1; conditions: at 1 µM
T1 sequence (whole entry): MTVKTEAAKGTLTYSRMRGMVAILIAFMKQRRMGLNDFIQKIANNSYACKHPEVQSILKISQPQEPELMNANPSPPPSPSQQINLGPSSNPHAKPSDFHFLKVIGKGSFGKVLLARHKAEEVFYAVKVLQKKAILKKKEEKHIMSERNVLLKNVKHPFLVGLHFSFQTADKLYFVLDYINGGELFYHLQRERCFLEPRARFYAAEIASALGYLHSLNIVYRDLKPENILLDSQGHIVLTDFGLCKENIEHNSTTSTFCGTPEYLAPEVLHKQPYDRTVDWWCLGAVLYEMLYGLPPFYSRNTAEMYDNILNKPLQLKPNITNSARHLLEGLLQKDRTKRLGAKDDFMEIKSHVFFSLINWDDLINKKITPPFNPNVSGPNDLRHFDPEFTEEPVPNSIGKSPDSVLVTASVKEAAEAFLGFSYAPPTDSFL

[5] = molecular target: Sodium-dependent dopamine transporter (Homo sapiens, UniProt Q01959); assay: Selectivity interaction (GPCR panel (PDSP screen)) EUB0000303b SLC6A3
[6] = molecular target: Ribosomal protein S6 kinase alpha-3 (Homo sapiens) (UniProt P51812); assay: Selectivity interaction (KinomeScan (DiscoverX)) EUB0000303b RPS6KA3; conditions: at 1 µM
Sequence of Ribosomal protein S6 kinase alpha-3 (Homo sapiens) (P51812 whole entry): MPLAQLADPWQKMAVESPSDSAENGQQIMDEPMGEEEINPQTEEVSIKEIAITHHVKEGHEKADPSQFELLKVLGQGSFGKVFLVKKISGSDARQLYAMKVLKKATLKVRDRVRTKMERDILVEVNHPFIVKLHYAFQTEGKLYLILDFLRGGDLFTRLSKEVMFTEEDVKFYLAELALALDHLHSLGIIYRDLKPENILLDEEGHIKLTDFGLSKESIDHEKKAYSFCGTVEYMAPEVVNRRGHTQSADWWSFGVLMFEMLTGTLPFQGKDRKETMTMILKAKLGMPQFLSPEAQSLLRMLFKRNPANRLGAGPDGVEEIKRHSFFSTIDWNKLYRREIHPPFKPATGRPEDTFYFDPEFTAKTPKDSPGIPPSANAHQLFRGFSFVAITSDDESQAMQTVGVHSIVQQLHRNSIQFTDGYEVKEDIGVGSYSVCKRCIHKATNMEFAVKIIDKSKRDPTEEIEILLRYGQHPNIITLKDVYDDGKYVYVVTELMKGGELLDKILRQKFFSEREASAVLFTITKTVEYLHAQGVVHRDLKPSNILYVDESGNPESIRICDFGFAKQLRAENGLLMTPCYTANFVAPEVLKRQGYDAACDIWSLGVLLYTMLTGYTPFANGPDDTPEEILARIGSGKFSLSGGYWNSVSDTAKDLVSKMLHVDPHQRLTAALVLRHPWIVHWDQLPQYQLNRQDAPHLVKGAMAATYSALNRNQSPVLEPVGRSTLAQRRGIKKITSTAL

[7] = molecular target: Serine/threonine-protein kinase WNK2 (Homo sapiens) (UniProt Q9Y3S1); assay: Selectivity interaction (KinomeScan (DiscoverX)) EUB0000303b WNK2; conditions: at 1 µM
[8] = molecular target: T2, Ephrin type-B receptor 6 (Homo sapiens) (UniProt O15197); assay: Selectivity interaction (KinomeScan (DiscoverX)) EUB0000303b EPHB6; conditions: at 1 µM
T2 sequence (whole entry): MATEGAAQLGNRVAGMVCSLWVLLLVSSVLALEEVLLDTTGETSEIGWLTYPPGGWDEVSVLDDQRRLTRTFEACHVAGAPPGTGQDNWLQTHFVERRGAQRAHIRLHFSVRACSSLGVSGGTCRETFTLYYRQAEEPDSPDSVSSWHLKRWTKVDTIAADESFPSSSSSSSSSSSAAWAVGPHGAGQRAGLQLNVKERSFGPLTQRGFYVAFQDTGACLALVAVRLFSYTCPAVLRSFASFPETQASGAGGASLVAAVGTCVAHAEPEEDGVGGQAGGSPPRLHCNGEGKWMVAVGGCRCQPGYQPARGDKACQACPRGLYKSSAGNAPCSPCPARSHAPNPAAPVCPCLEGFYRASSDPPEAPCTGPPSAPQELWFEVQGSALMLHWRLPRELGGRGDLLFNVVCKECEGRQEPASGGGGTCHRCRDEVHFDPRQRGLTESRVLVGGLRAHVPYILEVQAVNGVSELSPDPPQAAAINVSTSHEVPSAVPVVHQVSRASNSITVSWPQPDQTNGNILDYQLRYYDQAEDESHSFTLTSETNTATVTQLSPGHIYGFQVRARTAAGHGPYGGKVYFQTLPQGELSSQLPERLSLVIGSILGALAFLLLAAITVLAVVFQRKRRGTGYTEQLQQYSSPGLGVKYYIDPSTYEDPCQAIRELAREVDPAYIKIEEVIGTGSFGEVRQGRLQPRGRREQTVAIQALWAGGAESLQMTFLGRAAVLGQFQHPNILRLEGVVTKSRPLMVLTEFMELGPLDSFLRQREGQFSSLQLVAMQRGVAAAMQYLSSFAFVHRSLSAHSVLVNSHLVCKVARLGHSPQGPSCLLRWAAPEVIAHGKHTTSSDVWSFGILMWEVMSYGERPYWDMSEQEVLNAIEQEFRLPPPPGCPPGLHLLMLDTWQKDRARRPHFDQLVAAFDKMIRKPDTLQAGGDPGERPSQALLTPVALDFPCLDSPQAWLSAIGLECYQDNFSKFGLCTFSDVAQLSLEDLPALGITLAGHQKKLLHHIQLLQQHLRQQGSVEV

[9] = molecular target: T3, Serine/threonine-protein kinase LATS2 (Homo sapiens) (UniProt Q9NRM7); assay: Selectivity interaction (KinomeScan (DiscoverX)) EUB0000303b LATS2; conditions: at 1 µM
T3 sequence (whole entry): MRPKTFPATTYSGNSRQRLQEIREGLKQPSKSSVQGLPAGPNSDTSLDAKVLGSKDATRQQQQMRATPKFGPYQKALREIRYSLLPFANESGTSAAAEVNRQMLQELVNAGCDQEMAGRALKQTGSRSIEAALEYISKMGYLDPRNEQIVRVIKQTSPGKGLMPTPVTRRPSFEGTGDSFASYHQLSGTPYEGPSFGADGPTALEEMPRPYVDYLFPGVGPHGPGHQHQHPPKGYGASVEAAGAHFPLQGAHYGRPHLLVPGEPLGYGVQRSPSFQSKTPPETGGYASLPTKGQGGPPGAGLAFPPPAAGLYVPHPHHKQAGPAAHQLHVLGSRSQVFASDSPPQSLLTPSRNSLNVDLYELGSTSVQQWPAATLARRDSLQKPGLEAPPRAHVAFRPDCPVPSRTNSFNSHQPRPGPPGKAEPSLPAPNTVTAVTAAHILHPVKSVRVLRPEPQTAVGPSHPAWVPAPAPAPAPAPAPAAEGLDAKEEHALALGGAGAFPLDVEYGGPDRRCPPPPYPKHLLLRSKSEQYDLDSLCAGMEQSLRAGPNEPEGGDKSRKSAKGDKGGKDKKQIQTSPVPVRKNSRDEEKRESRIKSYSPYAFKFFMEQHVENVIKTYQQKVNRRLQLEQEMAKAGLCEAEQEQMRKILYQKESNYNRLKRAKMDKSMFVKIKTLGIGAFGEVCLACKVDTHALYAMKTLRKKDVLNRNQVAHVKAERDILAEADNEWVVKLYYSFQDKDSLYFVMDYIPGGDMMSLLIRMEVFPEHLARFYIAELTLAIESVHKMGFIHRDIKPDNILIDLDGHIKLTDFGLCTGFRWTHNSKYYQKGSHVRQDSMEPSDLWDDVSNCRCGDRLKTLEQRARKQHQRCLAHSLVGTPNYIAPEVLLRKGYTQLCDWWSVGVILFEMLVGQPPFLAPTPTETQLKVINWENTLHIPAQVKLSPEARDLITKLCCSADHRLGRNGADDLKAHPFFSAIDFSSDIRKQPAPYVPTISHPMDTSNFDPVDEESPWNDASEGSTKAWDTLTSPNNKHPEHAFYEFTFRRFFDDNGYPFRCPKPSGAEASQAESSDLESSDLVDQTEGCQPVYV

[10] = molecular target: T4, Gamma-aminobutyric acid receptor subunit alpha-1 (Homo sapiens, UniProt P14867); assay: Selectivity interaction (GPCR panel (PDSP screen)) EUB0000303b GABRA1
T4 sequence (P14867 whole entry): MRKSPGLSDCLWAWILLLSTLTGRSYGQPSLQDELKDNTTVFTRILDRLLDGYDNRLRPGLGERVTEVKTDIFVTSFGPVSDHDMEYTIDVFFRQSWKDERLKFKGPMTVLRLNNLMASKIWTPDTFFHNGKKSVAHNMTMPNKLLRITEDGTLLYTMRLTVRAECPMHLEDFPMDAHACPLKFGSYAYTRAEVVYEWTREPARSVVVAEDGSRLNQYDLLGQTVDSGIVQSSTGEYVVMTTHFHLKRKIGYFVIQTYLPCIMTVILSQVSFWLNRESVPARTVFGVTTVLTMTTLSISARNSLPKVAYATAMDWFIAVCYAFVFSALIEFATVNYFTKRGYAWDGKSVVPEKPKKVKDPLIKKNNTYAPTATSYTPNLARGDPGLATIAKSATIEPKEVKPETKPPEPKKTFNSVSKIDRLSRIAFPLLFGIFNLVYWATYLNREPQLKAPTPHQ

[11] = molecular target: T4, Gamma-aminobutyric acid receptor subunit alpha-1; assay: Selectivity interaction (GPCR panel (PDSP screen)) EUB0000719a GABRA1
[12] = molecular target: 5-hydroxytryptamine receptor 2B (Homo sapiens, UniProt P41595); assay: Selectivity interaction (Lead profiling screen (Eurofins-Panlabs)) EUB0000720a HTR2B; conditions: at 10 µM
[13] = molecular target: T4, Gamma-aminobutyric acid receptor subunit alpha-1; assay: Selectivity interaction (GPCR panel (PDSP screen)) EUB0000720a GABRA1
[14] = molecular target: RAC-gamma serine/threonine-protein kinase (Homo sapiens) (UniProt Q9Y243); assay: Selectivity interaction (KinomeScan (DiscoverX)) EUB0000751a AKT3; conditions: at 100 nM
Sequence of RAC-gamma serine/threonine-protein kinase (Homo sapiens) (Q9Y243 whole entry): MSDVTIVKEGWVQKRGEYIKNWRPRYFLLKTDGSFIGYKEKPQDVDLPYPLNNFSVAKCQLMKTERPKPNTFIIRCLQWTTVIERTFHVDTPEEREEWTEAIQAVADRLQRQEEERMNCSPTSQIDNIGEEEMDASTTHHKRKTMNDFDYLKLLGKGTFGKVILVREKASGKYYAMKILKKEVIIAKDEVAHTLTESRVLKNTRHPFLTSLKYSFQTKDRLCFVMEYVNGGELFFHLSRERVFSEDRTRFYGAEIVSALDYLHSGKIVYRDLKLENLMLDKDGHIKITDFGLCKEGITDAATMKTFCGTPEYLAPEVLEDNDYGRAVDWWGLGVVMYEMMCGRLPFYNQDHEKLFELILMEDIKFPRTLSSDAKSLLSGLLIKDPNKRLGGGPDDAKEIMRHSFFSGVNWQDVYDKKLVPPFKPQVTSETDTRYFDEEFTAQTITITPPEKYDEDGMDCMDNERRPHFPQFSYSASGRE

[15] = molecular target: T5, Sodium/nucleoside cotransporter 2 (Homo sapiens, UniProt O43868); assay: Selectivity interaction (Enzyme panel (Eurofins-Panlabs enzyme assay)) EUB0000751a SLC28A2
T5 sequence (O43868 whole entry): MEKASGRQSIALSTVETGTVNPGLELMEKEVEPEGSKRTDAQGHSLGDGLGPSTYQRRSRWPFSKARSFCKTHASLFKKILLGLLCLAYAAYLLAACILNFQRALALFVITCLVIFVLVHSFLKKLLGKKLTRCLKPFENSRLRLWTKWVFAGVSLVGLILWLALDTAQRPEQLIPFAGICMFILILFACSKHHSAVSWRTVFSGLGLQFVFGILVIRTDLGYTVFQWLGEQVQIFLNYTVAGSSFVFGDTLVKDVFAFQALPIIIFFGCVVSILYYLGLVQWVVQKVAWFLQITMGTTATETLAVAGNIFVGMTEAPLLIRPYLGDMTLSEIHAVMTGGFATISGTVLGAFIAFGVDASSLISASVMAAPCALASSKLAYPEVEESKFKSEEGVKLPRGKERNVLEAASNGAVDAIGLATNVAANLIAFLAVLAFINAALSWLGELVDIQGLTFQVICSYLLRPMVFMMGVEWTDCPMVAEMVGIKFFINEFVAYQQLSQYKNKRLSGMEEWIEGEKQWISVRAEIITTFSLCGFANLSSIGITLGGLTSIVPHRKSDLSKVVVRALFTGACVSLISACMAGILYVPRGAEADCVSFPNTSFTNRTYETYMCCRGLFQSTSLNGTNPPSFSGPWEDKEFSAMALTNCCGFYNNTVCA

[16] = molecular target: cGMP-inhibited 3',5'-cyclic phosphodiesterase 3A (Homo sapiens, UniProt Q14432); assay: Selectivity interaction (PDE panel (enzymatic activity assay)) EUB0000751a PDE3A
Sequence of cGMP-inhibited 3',5'-cyclic phosphodiesterase 3A (Q14432 whole entry): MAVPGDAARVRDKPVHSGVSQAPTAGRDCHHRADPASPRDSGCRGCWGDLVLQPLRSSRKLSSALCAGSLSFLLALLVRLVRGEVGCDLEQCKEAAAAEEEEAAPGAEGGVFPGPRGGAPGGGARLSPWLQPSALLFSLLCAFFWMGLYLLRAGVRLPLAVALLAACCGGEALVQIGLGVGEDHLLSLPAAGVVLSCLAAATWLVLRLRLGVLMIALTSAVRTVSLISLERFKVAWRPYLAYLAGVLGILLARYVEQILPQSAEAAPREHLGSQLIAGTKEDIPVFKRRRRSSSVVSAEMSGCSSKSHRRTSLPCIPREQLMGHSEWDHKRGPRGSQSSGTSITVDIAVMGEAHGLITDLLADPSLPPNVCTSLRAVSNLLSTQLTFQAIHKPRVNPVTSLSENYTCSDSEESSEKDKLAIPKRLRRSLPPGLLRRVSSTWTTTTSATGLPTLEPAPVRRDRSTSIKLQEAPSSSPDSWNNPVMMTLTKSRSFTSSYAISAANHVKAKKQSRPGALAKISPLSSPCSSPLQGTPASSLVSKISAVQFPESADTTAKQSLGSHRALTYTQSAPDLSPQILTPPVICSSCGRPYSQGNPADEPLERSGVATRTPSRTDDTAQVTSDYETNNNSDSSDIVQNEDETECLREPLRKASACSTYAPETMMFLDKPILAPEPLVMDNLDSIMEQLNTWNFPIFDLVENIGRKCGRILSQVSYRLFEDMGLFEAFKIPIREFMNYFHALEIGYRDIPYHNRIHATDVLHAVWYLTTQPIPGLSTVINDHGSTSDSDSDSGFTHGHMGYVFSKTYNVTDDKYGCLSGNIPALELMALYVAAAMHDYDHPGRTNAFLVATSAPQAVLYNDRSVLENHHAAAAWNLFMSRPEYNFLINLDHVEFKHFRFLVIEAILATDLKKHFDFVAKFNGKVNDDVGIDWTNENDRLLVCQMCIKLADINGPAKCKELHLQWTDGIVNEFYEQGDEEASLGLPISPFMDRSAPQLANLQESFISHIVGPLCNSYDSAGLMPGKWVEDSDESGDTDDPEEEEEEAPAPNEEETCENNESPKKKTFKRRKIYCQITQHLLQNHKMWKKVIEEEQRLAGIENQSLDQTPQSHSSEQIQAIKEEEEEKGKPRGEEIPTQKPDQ

[17] = molecular target: High affinity 3',5'-cyclic-AMP phosphodiesterase 7A (Homo sapiens, UniProt Q13946); assay: Selectivity interaction (PDE panel (enzymatic activity assay)) EUB0000751a PDE7A
Sequence of High affinity 3',5'-cyclic-AMP phosphodiesterase 7A (Q13946 whole entry): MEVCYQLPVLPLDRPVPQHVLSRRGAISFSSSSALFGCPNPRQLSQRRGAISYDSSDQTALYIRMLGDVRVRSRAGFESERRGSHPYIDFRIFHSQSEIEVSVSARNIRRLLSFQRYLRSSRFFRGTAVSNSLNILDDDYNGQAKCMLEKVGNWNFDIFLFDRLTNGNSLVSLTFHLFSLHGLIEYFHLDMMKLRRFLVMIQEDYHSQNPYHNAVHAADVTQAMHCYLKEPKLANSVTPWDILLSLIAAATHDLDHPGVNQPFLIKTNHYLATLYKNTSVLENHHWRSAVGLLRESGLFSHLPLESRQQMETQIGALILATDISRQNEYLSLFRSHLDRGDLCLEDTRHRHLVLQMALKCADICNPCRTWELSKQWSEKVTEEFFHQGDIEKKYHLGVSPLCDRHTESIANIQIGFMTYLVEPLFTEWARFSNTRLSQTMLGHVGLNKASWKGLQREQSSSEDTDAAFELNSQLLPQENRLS

[18] = molecular target: T5, Sodium/nucleoside cotransporter 2; assay: Selectivity interaction (Enzyme panel (Eurofins-Panlabs radioligand binding assays)) EUB0000751a SLC28A2

For `Cc1ccc2nc(CNCCCOc3ccccc3)cc(O)c2c1` [UCSF924], the Ki [1] was 1 µM.
For `Cc1nc(N2CC[C@H](O)C2)ncc1-c1cc(C(F)(F)F)cc2[nH]ncc12`, the % of control [2] was 42%, the “% of inhibition” value [3] was 1% and the % of control [4] was 49%. The Ki [5] was 1.68 µM, the % of control [6] was 48% and the % of control [7] was 41%. It also gave a % of control [8] of 36%, a % of control [9] of 26% and a Ki [10] of 4.54 µM.
Molecule `CN1C(=O)[C@@H](N2CCc3cn(Cc4ccccc4)nc3C2=O)COc2ccccc21` [TP-030-1] has a Ki [11] of 0.375 µM.
Molecule `CN1C(=O)[C@@H](N2CCc3c(nn(Cc4ccccc4)c3Br)C2=O)COc2ccccc21` [TP-030-2] has a % of control [12] of 63% and a Ki [13] of 0.347 µM.
In the case of `COCCOc1nc(-c2ccc(Cl)nc2)nc2c1CN(C(=O)c1ncn3ccccc13)CC2` [THPP-1], the % of control [14] is reported as 47%, the IC50 [15] is reported as 1.61 µM and the Ki [16] is reported as greater than 3300 µM. For the same molecule, the Ki [17] was greater than 11.2 µM and the IC50 [18] was 1.61 µM.
